{
  "source": "patent US20220202872A1",
  "about": "“METHOD FOR GENERATING A THREE-DIMENSIONAL NEUROMUSCULAR ORGANOID IN VITRO” (MAX-DELBRÜCK-CENTRUM FÜR MOLEKULARE MEDIZIN IN DER …, priority 2020, published 2022)",
  "key": {"NMOs [1]": {"system": "NMOs", "test": "Microelectrode array (MEA) recording of whole organoids", "assay_type": "cell-based, human", "conditions": "for local (single electrode) firings / synchronous network activity (paired electrode spikes) / rhythmic, central pattern generator-like activity: NMDA and 5-HT applied together; for local (single electrode) firings / synchronous network activity (paired electrode spikes): day 50, FIG. 6G legend: 50 uM NMDA/40 uM 5-HT; for electrical activity triggered by NMDA/5-HT cocktail: cocktail of NMDA (10 uM) and 5-HT (40 uM), applied together; for suppression of electrical activity: APV 50 uM and CNQX 40 uM applied together, glutamate receptor inhibitors"}, "NMOs [2]": {"system": "NMOs", "test": "Contraction analysis of neuromuscular organoids before and after curare", "assay_type": "cell-based, human", "conditions": "curare 10 uM; before vs after treatment", "protocol": "To investigate the functionality of NMJs, the contractile activity of NMOs was measured before and after treatment with Curare (10 uM), a blocker of AChRs.\nVideo segments of equal length were recorded using a bright-field microscope (DMI1, Leica) in 3 different regions of the same organoid using 20× zoom. To quantify muscle contractions, each movie was analyzed separately where each visible contraction was counted and then averaged for the whole organoid.\nTo analyze and map organoid muscular contraction, bright field time series images were automatically thresholded using ImageJ software to identify organoid border. A binary stack was created and contractile regions were visually identified. Regions of interest were defined and variations of organoid area (in pixel), used as a proxy of physical contraction, were plotted over the time series."}},
  "note": "“Also recorded” adds a separate entry of the source.",
  "data": [
    {"compound": "NCCc1c[nH]c2ccc(O)cc12", "note": "[5-HT, Serotonin]", "values": [
      {"measurement": "local (single electrode) firings", "setting": "NMOs [1]", "value": "increased single firings; also recorded: notable increase"},
      {"measurement": "synchronous network activity (paired electrode spikes)", "setting": "NMOs [1]", "value": "increase in paired electrode spikes; also recorded: dramatic increase"},
      {"measurement": "rhythmic, central pattern generator-like activity", "setting": "NMOs [1]; day 50 NMOs", "value": "central pattern generator-like activity; also recorded: became rhythmic; also recorded: produced rhythmic bursts of electrical activity"},
      {"measurement": "electrical activity triggered by NMDA/5-HT cocktail", "setting": "NMOs [1]", "value": "instantaneously triggered strong activity"}
    ]},
    {"compound": "CC(=O)OCC[N+](C)(C)C", "note": "[acetylcholine]", "values": [
      {"measurement": "increase of electrical activity", "setting": "NMOs [1]; acetylcholine 10 uM stimulation, day 50 NMOs", "value": "approximately 10 fold"}
    ]},
    {"compound": "N[C@@H](CCC(=O)O)C(=O)O", "note": "[glutamate]", "values": [
      {"measurement": "increase of spontaneous electrical activity", "setting": "NMOs [1]; acute glutamate 50 uM, day 30 and day 50 organoids", "value": "approximately 12 fold"}
    ]},
    {"compound": "curare", "values": [
      {"measurement": "contraction of the skeletal muscles (contractile activity of NMOs)", "setting": "NMOs [2]", "value": "blocked the contraction; also recorded: organoid relaxation"},
      {"measurement": "block of acetylcholine-stimulated electrical activity", "setting": "NMOs [1]; curare 10 uM added after acetylcholine 10 uM, day 50 NMOs", "value": "rapidly and reversibly blocked"}
    ]},
    {"compound": "N[C@@H](CCCP(=O)(O)O)C(=O)O", "note": "[APV]", "values": [
      {"measurement": "suppression of electrical activity", "setting": "NMOs [1]", "value": "reversibly suppressed nearly all electrical activity"}
    ]},
    {"compound": "NC1=N[C@H](O)[C@H]2[C@H]3O[C@]4(O)O[C@@H]([C@@H](O)[C@@]2(N1)[C@@H]4O)[C@]3(O)CO", "note": "[tetrodotoxin]", "values": [
      {"measurement": "suppression of NMDA/5-HT-triggered activity", "setting": "NMOs [1]", "value": "reversibly suppressed"}
    ]},
    {"compound": "CN[C@H](CC(=O)O)C(=O)O", "note": "[NMDA]", "values": [
      {"measurement": "local (single electrode) firings", "setting": "NMOs [1]", "value": "increased single firings; also recorded: notable increase"},
      {"measurement": "synchronous network activity (paired electrode spikes)", "setting": "NMOs [1]", "value": "increase in paired electrode spikes; also recorded: dramatic increase"},
      {"measurement": "rhythmic, central pattern generator-like activity", "setting": "NMOs [1]; day 50 NMOs", "value": "central pattern generator-like activity; also recorded: became rhythmic; also recorded: produced rhythmic bursts of electrical activity"},
      {"measurement": "electrical activity triggered by NMDA/5-HT cocktail", "setting": "NMOs [1]", "value": "instantaneously triggered strong activity"}
    ]},
    {"compound": "N#Cc1cc2[nH]c(=O)c(=O)[nH]c2cc1[N+](=O)[O-]", "note": "[CNQX]", "values": [
      {"measurement": "suppression of electrical activity", "setting": "NMOs [1]", "value": "reversibly suppressed nearly all electrical activity"}
    ]}
  ]
}
